# Test results taken from patent EP0429304A2, “Pyridone-carboxylic acid derivatives and their use as veterinary medicines” (SHIONOGI SEIYAKU KABUSHIKI KAISHA trading under the name of …, priority 1989, dated 1991).
# Like-named read-outs stand apart in the source and are kept apart here.
# How the values were obtained:
# [1] = tested on: Mycoplasma hyopneumoniae (Mh) ST-11; test: In vitro sensitivity test (liquid dilution method); type: cell-based; conditions: 37°C, 7 days
# [2] = tested on: Mycoplasma synoviae (MS) F10-2as; test: In vitro sensitivity test (liquid dilution method); type: cell-based; conditions: 37°C, 7 days
# Method in brief: (§1)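 Mycoplasma synoviae strains tested by liquid dilution in Frey medium with 12% pig serum and 0.01% βNAD, 37 °C for 7 days. P. piscicida grown on heart infusion agar with 1.5% NaCl, 25 °C for 40–48 h.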
# [3] = tested on: Mycoplasma gallisepticum (MG) S6; test: In vitro sensitivity test (liquid dilution method); type: cell-based; conditions: 37°C, 7 days
# [4] = tested on: Mycoplasma synoviae (MS) 1853; test: In vitro sensitivity test (liquid dilution method); type: cell-based; conditions: 37°C, 7 days
# Method in brief: as §1
# [5] = tested on: Mycoplasma gallisepticum (MG) T-7-T, TS-resistant strain isolated from the field; test: In vitro sensitivity test (liquid dilution method); type: cell-based; conditions: 37°C, 7 days
# [6] = tested on: Staphylococcus aureus (S.au) 209P; test: In vitro sensitivity test (agar dilution method); type: cell-based; conditions: 37°C, 20 to 24 hours
# Method in brief: (§2)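 For the fish-origin P.pis strain this meant heart infusion agar supplemented with 1.5 % NaCl at 25°C for 40 to 48 hours. S.au plates used Mueller Hinton agar at 37°C for 20 to 24 hours. MS broths used Frey medium with 12 % pig-serum and 0.01 % βNAD at 37°C for 7 days.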
# [7] = tested on: Salmonella typhimurium (S.typhi) 13311; test: In vitro sensitivity test (agar dilution method); type: cell-based; conditions: 37°C, 20 to 24 hours
# [8] = tested on: Hemophilus pleuropneumonia (H.pp) M-1; test: In vitro sensitivity test (agar dilution method); type: cell-based; conditions: 37°C, 20 hours, 10 % CO₂
# [9] = tested on: Hemophilus paragallinarum (H.pg) S-1; test: In vitro sensitivity test (agar dilution method); type: cell-based; conditions: agar dilution, 37°C, 20 hours, 10 % CO₂
# [10] = tested on: Bordetella bronchiseptica (B.br) ABU-1; test: In vitro sensitivity test (agar dilution method); type: cell-based; conditions: 37°C, 20 to 24 hours
# [11] = tested on: Escherichia coli (E.coli) JC-2; test: In vitro sensitivity test (agar dilution method); type: cell-based; conditions: 37°C, 20 to 24 hours
# [12] = tested on: Escherichia coli (E.coli) E-17, chicken-origin strain isolated from the field; test: In vitro sensitivity test (agar dilution method); type: cell-based; conditions: 37°C, 20 to 24 hours
# Method in brief: as §2
# [13] = tested on: Hemophilus paragallinarum (H.pg) 221; test: In vitro sensitivity test (agar dilution method); type: cell-based; conditions: agar dilution, 37°C, 20 hours, 10 % CO₂
# [14] = tested on: TS-resistant strain of MG; type: in vivo, chicken; conditions: for Infectious index Left air sack + / Infectious index Left air sack ++ / Infectious index Left air sack +++ / Infectious index Left air sack - / Infectious index Right air sack + / Infectious index Right air sack ++ / Infectious index Right air sack +++ / Infectious index Right air sack -: count of fowl; for Infectious index Left air sack + / Infectious index Left air sack ++ / Infectious index Left air sack +++ / Infectious index Left air sack - / Infectious index Right air sack + / Infectious index Right air sack ++ / Infectious index Right air sack +++ / Infectious index Right air sack - / Number of fowl having air sack lesions: 10-days chicken, 1.2 x 10³ CFU/fowl
# [15] = tested on: Streptococcus sp (Str.sp) SNO6119; test: In vitro sensitivity test; type: cell-based; conditions: 25°C, 40 to 48 hours
# [16] = tested on: Pasteurella piscicida (P.pis) No. 2; test: In vitro sensitivity test; type: cell-based; conditions: 25°C, 40 to 48 hours
# Method in brief: as §1
# TS-resistant MG = test: Experimental MG infection to chicken, through injection; type: in vivo; conditions: 5 fowl tested, 10-days chicken, 3.1 x 10³ CFU/fowl; for Infectious index Left air sack + (number of fowl) / Infectious index Right air sack + (number of fowl): grade + = slight infection; for Infectious index Left air sack ++ (number of fowl) / Infectious index Right air sack ++ (number of fowl): grade ++ = considerable infection; for Infectious index Left air sack +++ (number of fowl) / Infectious index Right air sack +++ (number of fowl): grade +++ = severe infection; for Infectious index Left air sack - (number of fowl) / Infectious index Right air sack - (number of fowl): grade - = no infection
smiles,measurement,setting,value
N[C@H]1CCC[C@H]2CN(c3c(F)cc4c(=O)c(C(=O)O)cn(C5CC5)c4c3F)CC[C@H]21 (relative stereo) [I-6],In vitro Sensitivity Test Mh ST-11,[1],<0.025 µg/mL
same,In vitro Sensitivity Test MS F10-2as,[2],0.2 µg/ml
same,In vitro Sensitivity Test MG S6,[3],0.00625 µg/mL
same,In vitro Sensitivity Test MS 1853,[4],0.2 µg/mL
same,In vitro Sensitivity Test MG T-7-T,[5],0.00625 µg/mL
same,In vitro Sensitivity Test S.au 209P,[6],≦0.0125 µg/ml
same,In vitro Sensitivity Test S.typhi 13311,[7],0.2 µg/mL
same,In vitro Sensitivity Test H.pp M-1,[8],0.2 µg/mL
same,In vitro Sensitivity Test H.pg S-1,[9],>1.56 µg/mL
same,In vitro Sensitivity Test B.br ABU-1,[10],3.13 µg/mL
same,In vitro Sensitivity Test E.coli JC-2,[11],0.1 µg/mL
same,In vitro Sensitivity Test E.coli E-17,[12],0.2 µg/ml
same,In vitro Sensitivity Test H.pg 221,[13],>1.56 µg/mL
same,Infectious index Left air sack +,[14]; oral 3.13 mg/kg,0
same,Infectious index Left air sack ++,[14]; oral 3.13 mg/kg,0
same,Infectious index Left air sack +++,[14]; oral 3.13 mg/kg,0
same,Infectious index Left air sack -,[14]; oral 3.13 mg/kg,5
same,Infectious index Right air sack +,[14]; oral 3.13 mg/kg,0
same,Infectious index Right air sack ++,[14]; oral 3.13 mg/kg,0
same,Infectious index Right air sack +++,[14]; oral 3.13 mg/kg,0
same,Infectious index Right air sack -,[14]; oral 3.13 mg/kg,5
same,Infectious index Left air sack +,[14]; oral 6.25 mg/kg,1
same,Infectious index Left air sack ++,[14]; oral 6.25 mg/kg,0
same,Infectious index Left air sack +++,[14]; oral 6.25 mg/kg,0
same,Infectious index Left air sack -,[14]; oral 6.25 mg/kg,4
same,Infectious index Right air sack +,[14]; oral 6.25 mg/kg,1
same,Infectious index Right air sack ++,[14]; oral 6.25 mg/kg,4
same,Infectious index Right air sack +++,[14]; oral 6.25 mg/kg,0
same,Infectious index Right air sack -,[14]; oral 6.25 mg/kg,0
same,Infectious index Left air sack +,[14]; oral 12.5 mg/kg,0
same,Infectious index Left air sack ++,[14]; oral 12.5 mg/kg,0
same,Infectious index Left air sack +++,[14]; oral 12.5 mg/kg,0
same,Infectious index Left air sack -,[14]; oral 12.5 mg/kg,5
same,Infectious index Right air sack +,[14]; oral 12.5 mg/kg,0
same,Infectious index Right air sack ++,[14]; oral 12.5 mg/kg,4
same,Infectious index Right air sack +++,[14]; oral 12.5 mg/kg,1
same,Infectious index Right air sack -,[14]; oral 12.5 mg/kg,0
same,Number of fowl having air sack lesions,[14]; oral 3.13 mg/kg,0
same,Number of fowl having air sack lesions,[14]; oral 6.25 mg/kg,5
same,Number of fowl having air sack lesions,[14]; oral 12.5 mg/kg,5
same,In vitro Sensitivity Test Str.sp SNO6119,[15],0.39 µg/mL
same,In vitro Sensitivity Test P.pis No. 2,[16],0.78 µg/mL
same,Number of fowl having air sack lesions,TS-resistant MG; Dose 1.56 mg/kg,0
same,Infectious index Left air sack + (number of fowl),TS-resistant MG; Dose 1.56 mg/kg,0
same,Infectious index Right air sack + (number of fowl),TS-resistant MG; Dose 1.56 mg/kg,0
same,Infectious index Left air sack ++ (number of fowl),TS-resistant MG; Dose 1.56 mg/kg,0
same,Infectious index Right air sack ++ (number of fowl),TS-resistant MG; Dose 1.56 mg/kg,0
same,Infectious index Left air sack +++ (number of fowl),TS-resistant MG; Dose 1.56 mg/kg,0
same,Infectious index Right air sack +++ (number of fowl),TS-resistant MG; Dose 1.56 mg/kg,0
same,Infectious index Left air sack - (number of fowl),TS-resistant MG; Dose 1.56 mg/kg,5
same,Infectious index Right air sack - (number of fowl),TS-resistant MG; Dose 1.56 mg/kg,5
same,Number of fowl having air sack lesions,TS-resistant MG; Dose 3.13 mg/kg,0
same,Infectious index Left air sack + (number of fowl),TS-resistant MG; Dose 3.13 mg/kg,0
same,Infectious index Right air sack + (number of fowl),TS-resistant MG; Dose 3.13 mg/kg,0
same,Infectious index Left air sack ++ (number of fowl),TS-resistant MG; Dose 3.13 mg/kg,0
same,Infectious index Right air sack ++ (number of fowl),TS-resistant MG; Dose 3.13 mg/kg,0
same,Infectious index Left air sack +++ (number of fowl),TS-resistant MG; Dose 3.13 mg/kg,0
same,Infectious index Right air sack +++ (number of fowl),TS-resistant MG; Dose 3.13 mg/kg,0
same,Infectious index Left air sack - (number of fowl),TS-resistant MG; Dose 3.13 mg/kg,5
same,Infectious index Right air sack - (number of fowl),TS-resistant MG; Dose 3.13 mg/kg,0
"NC[C@@]12CCC[C@@H]1CN(c1cc3c(cc1F)c(=O)c(C(=O)O)cn3C1CC1)C2 (relative stereo) [I-8, 7-[(1R*,5S*)-1-aminomethyl-3-azabicyclo[3.3.0]octan-3-yl]-1-cyclopropyl-6-fluoro-1,4-dihydro-4-oxo-3-quinolinecarboxylic acid]",In vitro Sensitivity Test Mh ST-11,[1],<0.025 µg/mL
same,In vitro Sensitivity Test MS F10-2as,[2],0.1 µg/ml
same,In vitro Sensitivity Test MG S6,[3],<0.00313 µg/mL
same,In vitro Sensitivity Test MS 1853,[4],0.1 µg/mL
same,In vitro Sensitivity Test MG T-7-T,[5],0.00625 µg/mL
same,In vitro Sensitivity Test S.au 209P,[6],<0.0125 µg/mL
same,In vitro Sensitivity Test S.typhi 13311,[7],0.2 µg/mL
same,In vitro Sensitivity Test H.pp M-1,[8],0.05 µg/mL
same,In vitro Sensitivity Test H.pg S-1,[9],0.2 µg/mL
same,In vitro Sensitivity Test B.br ABU-1,[10],1.56 µg/mL
same,In vitro Sensitivity Test E.coli JC-2,[11],0.05 µg/mL
same,In vitro Sensitivity Test E.coli E-17,[12],0.05 µg/ml
same,In vitro Sensitivity Test H.pg 221,[13],0.2 µg/mL
same,Infectious index Left air sack +,[14]; oral 1.56 mg/kg,0
same,Infectious index Left air sack ++,[14]; oral 1.56 mg/kg,0
same,Infectious index Left air sack +++,[14]; oral 1.56 mg/kg,0
same,Infectious index Left air sack -,[14]; oral 1.56 mg/kg,5
same,Infectious index Right air sack +,[14]; oral 1.56 mg/kg,3
same,Infectious index Right air sack ++,[14]; oral 1.56 mg/kg,2
same,Infectious index Right air sack +++,[14]; oral 1.56 mg/kg,0
same,Infectious index Right air sack -,[14]; oral 1.56 mg/kg,0
same,Infectious index Left air sack +,[14]; oral 3.13 mg/kg,0
same,Infectious index Left air sack ++,[14]; oral 3.13 mg/kg,0
same,Infectious index Left air sack +++,[14]; oral 3.13 mg/kg,0
same,Infectious index Left air sack -,[14]; oral 3.13 mg/kg,5
same,Infectious index Right air sack +,[14]; oral 3.13 mg/kg,1
same,Infectious index Right air sack ++,[14]; oral 3.13 mg/kg,0
same,Infectious index Right air sack +++,[14]; oral 3.13 mg/kg,0
same,Infectious index Right air sack -,[14]; oral 3.13 mg/kg,4
same,Infectious index Left air sack +,[14]; oral 6.25 mg/kg,0
same,Infectious index Left air sack ++,[14]; oral 6.25 mg/kg,0
same,Infectious index Left air sack +++,[14]; oral 6.25 mg/kg,0
same,Infectious index Left air sack -,[14]; oral 6.25 mg/kg,5
same,Infectious index Right air sack +,[14]; oral 6.25 mg/kg,0
same,Infectious index Right air sack ++,[14]; oral 6.25 mg/kg,0
same,Infectious index Right air sack +++,[14]; oral 6.25 mg/kg,0
same,Infectious index Right air sack -,[14]; oral 6.25 mg/kg,5
same,antimicrobial activity compared with ERFX,"[14]; in vivo, po",two times more effective than ERFX
same,Number of fowl having air sack lesions,[14]; oral 1.56 mg/kg,5
same,Number of fowl having air sack lesions,[14]; oral 3.13 mg/kg,1
same,Number of fowl having air sack lesions,[14]; oral 6.25 mg/kg,0
same,complete inihibition of the lesions in air sac at a concentration of,"[14]; oral administration, MG-infected chicken",about 3.13 mg/kg
same,In vitro Sensitivity Test Str.sp SNO6119,[15],0.78 µg/mL
same,In vitro Sensitivity Test P.pis No. 2,[16],0.78 µg/mL
